Test results from patent US11583502B2, “Pharmaceutical compositions comprising a thyroid hormone beta agonist, method of use and method making thereof” (GANNEX PHARMA CO., LTD., priority 2020, dated 2023).

Experiments:
[1] = Solubility of the compound of Formula (I) in media without surfactant; assay type: physicochemical
From the text: The compound of Formula (I), however, is a lipophilic drug that is highly insoluble in water. […] The very low solubility limits its use in research and development as a drug candidate.
For drugs with poor solubility, in vitro dissolution evaluation is a simple and effective method for predicting and comparing dissolution in vivo. In vitro dissolution evaluation is also an important criterion for screening prescription drugs for quality control. […] Therefore, in order to completely dissolve the compound in a conventional 900 ml medium for a 10 mg/unit dose formulation, it is necessary to increase the solubility of the compound to at least 11.11 μg/ml. It would be difficult to achieve such a target with conventional solubilization technology.

[2] = assay type: physicochemical; conditions: 3.5 hours

solubility ([1]; aqueous buffer, hydrochloric acid solution, buffer, and water without surfactant at 37° C. and pH 1.0˜9.0): < 0.5 ng/mL
solubility ([1]; medium containing no surfactant): < 0.5 ng/mL
drug undergoing degradation reactions [2]: 10.2%
Compound: Cc1cc(OC[P@@]2(=O)OCC[C@@H](c3cccc(Cl)c3)O2)cc(C)c1Cc1ccc(O)c(C(C)C)c1 [compound of Formula (I)]
